# Results as given in PubChem BioAssay (NCI).
#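 Five compound concentrations were applied to cells in 96-well plates for 48 hours; endpoints were derived by simple linear interpolation of the resulting dose-response curve. The concentration for full growth arrest is given as TGI.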 *1 amine or outer side, *2 acyl side, *3 side chain or, on linkers, in order; H or OH if unused. Where a SMILES comes first, the peptide text is derived from it. [ ]: non-standard residue; d: D form. The star is where a group is joined. X31 = CC(=O)N(C)SCC(N[*:1])C(=O)[*:2]; Cbz = O=C(OCc1ccccc1)*; Bn = c1ccc(C*)cc1
# Legend:
# Assay in all cases: NCI-60 cell line screen, 48 h
# [1] = tested on: MDA-MB-231 breast
# [2] = tested on: DU-145 prostate
# [3] = tested on: M14 melanoma
# [4] = tested on: RXF 393 renal
# [5] = tested on: HOP-92 NSCLC
# [6] = tested on: UACC-62 melanoma
# [7] = tested on: UACC-257 melanoma
# [8] = tested on: A498 renal
# [9] = tested on: HCC-2998 colon
# [10] = tested on: HS 578T breast
Structure (SMILES),TGI [1] [µM],TGI [2] [µM],TGI [3] [µM],TGI [4] [µM],TGI [5] [µM],TGI [6] [µM],TGI [7] [µM],TGI [8] [µM],TGI [9] [µM],TGI [10] [µM]
COc1ccc(C2C3CCc4ccccc4C3=NN2S(=O)(=O)c2ccc(/C=C/C(=O)O)cc2)cc1 (centres undefined),> 100,> 100,> 100,31.4,> 100,23.8,,,,
O=C(Nc1cccc2c1[nH]c1c(-c3ccccc3)nccc12)c1ccccc1[N+](=O)[O-],,,> 100,90.2,9.05,,> 100,60.3,> 100,
O=C1CC(=O)NC(=NNS(=O)(=O)c2ccccc2)N1,> 100,> 100,> 100,> 100,> 100,> 100,> 100,,> 100,> 100
COC1(O)c2cccc(Cl)c2C(=O)N1C1(C(N)=O)CCCCC1 (centres undefined),,,,> 100,40.7,> 100,> 100,> 100,> 100,
CC(OC(=O)C(CC(=O)OC(C)(C)C)NC(=O)OC(C)(C)C)C(=O)OCc1ccccc1 (centres undefined),> 100,> 100,> 100,> 100,,> 100,> 100,,> 100,> 100
COc1ccc(C(=O)/C=C/c2ccc(OCCSCCCCCCCCCCSCCOc3ccc(/C=C/C(=O)c4ccc(OC)c(OC)c4)cc3)cc2)cc1OC,> 100,> 100,> 100,,,> 100,> 100,> 100,> 100,> 100
CC1C(OC2O[C@@H]3O[C@@]4(C)CC[C@H]5[C@H](C)CC[C@@H](C2C)[C@@]35O4)O[C@@H]2O[C@@]3(C)CC[C@H]4[C@H](C)CC[C@@H]1[C@@]24O3 (some centres undefined),> 50,> 50,> 50,,,> 50,> 50,> 50,> 50,> 50
COc1cc2c(cc1OCCCCOc1cc3c(cc1OC)C(=O)N1CCC[C@H]1C(=O)N3)N=C[C@@H]1CCCN1C2=O,8.7,44.3,33,14.8,,10.3,29.3,19.9,26.3,27.6
Clc1ccc(-c2c(C3=NCCCN3)nnn2-c2ccccc2)cc1,,,> 100,> 100,> 100,> 100,> 100,> 100,> 100,
COC(=O)C1(C(=O)OC)N=C(C)OC1/C=C/c1ccccc1 (centres undefined),,> 100,> 100,> 100,> 100,> 100,> 100,> 100,> 100,
CC1CCC2(CC1)NC1=C(CC(C)CC1)C1=C2CC(C)CC1 (centres undefined),53.9,> 100,40.6,30.7,39.4,,72.9,> 100,45.1,63.2
COC(=O)/C=C/C1(O)C=CC(=O)C=C1,5.37,9.57,3.78,> 25.1,> 32.1,7.43,13.6,> 60.2,21,
C[N+](C)(C)CC(=O)N/N=C/c1ccncc1,> 100,> 100,> 100,> 100,> 100,> 100,> 100,> 100,,> 100
O=C(O)C12CCCCC1CCCC2 (centres undefined),,,> 100,,> 100,> 100,,> 100,> 100,
OCCOc1ccccc2cccc1-2,> 100,> 100,> 100,,> 100,> 100,> 100,> 100,> 100,> 100
Ic1cc2c(cc1C1SCCCS1)OCO2,,,> 100,> 100,> 100,> 100,> 100,> 100,> 100,
CSC12c3cc(C)n(-c4ccccc4)c3CC(C)(C)CN1C(=O)C2Oc1ccccc1 (centres undefined),> 100,> 100,> 100,> 100,> 100,> 100,> 100,> 100,> 100,
Cc1cc(S(=O)(=O)/N=C(/[N-]S(=O)(=O)c2ccc(Cl)cc2)[n+]2ccc(N(C)C)cc2)c(SCC(=O)O)cc1Cl,> 100,> 100,> 100,> 100,54.3,> 100,> 100,> 100,,> 100
CN1CN(c2ccccc2)C2(CCN(CCC3COc4ccccc4O3)CC2)C1=O (centres undefined),> 100,> 100,42,> 100,,91.6,31,,23.9,
CC(=O)N(C)SCC(NC(=O)C(Cc1ccccc1)NC(=O)OCc1ccccc1)C(=O)NC(Cc1ccccc1)C(=O)NC(Cc1c[nH]c2ccccc12)C(=O)NC(CCCCNC(=O)OCc1ccccc1)C(=O)NC(C(=O)NC(CSN(C)C(C)=O)C(=O)NC(C(N)=O)C(C)OCc1ccccc1)C(C)OCc1ccccc1 (centres undefined) (Cbz-F[X31]FWK(Cbz)T(Bn)[X31]T(Bn)-NH2; configuration not given here),> 100,> 100,> 100,> 100,> 100,> 100,> 100,,> 100,> 100
O=c1cn[nH]c(=S)n1/N=C/c1c[nH]c2ccccc12,,> 100,> 100,,,> 100,> 100,> 100,> 100,> 100
CCOC1Oc2ccccc2-c2nc(SC)ncc21 (centres undefined),> 100,> 100,> 100,> 100,> 100,> 100,> 100,> 100,,> 100
CC(=O)NC(Cc1ccsc1)C(=O)O (centres undefined),,,,> 100,> 100,> 100,> 100,> 100,> 100,
